The test system of data set [1] is Apis mellifera. The settings on record: acute; duration: 48 hours; dermal; mortality.
In data set [2] the test system is Avena sativa. The settings on record: acute; duration: 21 days; other.
Data set [3] deals with Colinus virginianus.
The test system of data set [4] is Daphnia magna. The settings on record: chronic/long-term; duration: 21 days.
The test system of data set [5] is Lepomis macrochirus. Particulars: acute; duration: 96 hours; mortality.
Data set [6] concerns Pimephales promelas. Particulars: chronic/long-term.
The test system of data set [7] is Rattus norvegicus.
Data set [8] has as its system Tagia sp. The settings on record: acute; duration: 14 days; mortality.
In data set [9] the test system is Aphidius rhopalosiphi. The data set is described as follows: LR50; higher = less toxic. Particulars: acute; duration: 48 hours; mortality.

In general, NOAEL refers to the highest dose or exposure tested at which no adverse effect was seen.

≈ marks a conversion by molar mass, not a printed value. Where only a bound is given, the exact number is not on record here.

Turning to `CNC(=O)ON=C(C)SC` [Methomyl], the LD50 in data set [1] is 0.16 µg/piece; in [3] (acute, oral, mortality), 24.2 mg/kg-day; in data set [7] (acute, oral, mortality), 27.4 mg/kg-day. The compound also registered an LEL in data set [2] of 2250 g/ha. For the same compound, the LC50 in [3] (acute, oral, diet, mortality) is above 519 mg/kg-day; in [5], 0.63 µg/mL (≈ 3.88 µM); in data set [8] it was 19 mg/kg. Further, the results for the NOEC in data set [3] (reproduction developmental), in data set [4] and in [6] were 20.3 mg/kg-day, 0.0016 mg/L and 0.073 mg/L, respectively. Also, the NOAEL was found to be 0.25 mg/kg-day in data set [7] (acute, clinical chemistry) and 4.6 mg/kg-day in data set [7] (reproduction developmental, body weight). In addition, the LR50 in data set [9] came out at 0.25 g/ha.

The record behind these values is EPA's ToxValDB 9.5 (doi:10.2903/j.efsa.2009.222r).
